Results from paper PMC10492782, “Exploiting the aggregation propensity of beta-lactamases to design inhibitors that induce enzyme misfolding” (Nature Communications, 2023).
Read-outs that look alike come from different tables or passages of the source.

Key:
VIM-1 = conditions: ampicillin as substrate; cited from earlier work
From the text: (§1) Abbreviations: S, susceptible; I, intermediate; R, resistant.

OXA-48 = conditions: ampicillin as substrate; cited from earlier work
From the text: as §1

E. coli TEM-206 = assay: VITEK 2 AST antimicrobial susceptibility testing; type: cell-based, Escherichia coli; conditions: E. coli TEM-206
Protocol: (§2) Beta-lactamase clinical samples were collected from University Hospitals Leuven and tested for ESBL production using the disk diffusion method. The beta-lactamase reference isolates were purchased from International Health Management Associates (IHMA). Bacterial strains were cultivated in Mueller–Hinton Broth (MHB, Difco) at 37 °C. Whenever required, growth media were supplemented with appropriate antibiotics to the medium or plates (kanamycin 30 µg/mL, L-arabinose 0.5 mg/mL, and IPTG […]). Escherichia coli BL21 (ThermoFisher Scientific, Belgium) was used for cloning and plasmid amplification. For the selection of antibiotic resistant colonies, E. coli carrying plasmids was grown in LB agar plates supplemented with the relevant antibiotic. Bacterial CFU counting was done on blood agar plates (BD Biosciences, Belgium) or MHA agar plates. Species identification and antibiograms for all clinical isolates were performed using MALDI-Tof and VITEK® 2 automated system (BioMérieux, France).
(§3) Khodaparast et al Supplementary data
(§4) study. […] Abbreviations: S,
(§5) susceptible; I, intermediate; R, resistant.

E. coli NDM5b = assay: VITEK 2 AST antimicrobial susceptibility testing; type: cell-based, Escherichia coli
Protocol: as §2, §3, §4, §5

E. coli NDM5a = assay: VITEK 2 AST antimicrobial susceptibility testing; type: cell-based, Escherichia coli
Protocol: as §2, §3, §4, §5

E. coli TEM-104 = assay: VITEK 2 AST antimicrobial susceptibility testing; type: cell-based, Escherichia coli
Protocol: as §2, §3, §4, §5

E. coli TEM-148 = assay: VITEK 2 AST antimicrobial susceptibility testing; type: cell-based, Escherichia coli
Protocol: as §2, §3, §4, §5

E. coli SHV1 (APHA) = assay: VITEK 2 AST antimicrobial susceptibility testing; type: cell-based, Escherichia coli
Protocol: as §2, §3, §4, §5

E. coli TEM-16 = assay: VITEK 2 AST antimicrobial susceptibility testing; type: cell-based, Escherichia coli
Protocol: as §2, §3, §4, §5

[1] = tested on: uro-pathogenic E. coli strain (UPEC strain blaTEM-1); assay: MIC of ampicillin with or without 32 µg/mL TEM3.2 or tazobactam; type: cell-based, Escherichia coli; conditions: Escherichia coli; no additive
Protocol: We also performed a tolerability study using a dose escalation method by administering the peptide at 2, 5, 10, 15, and 20 mg/kg via different parenteral routes: intravenous (IV), intraperitoneal (IP), and subcutaneous (SC) in female C57BL/6JAX mice, aged 8–10 weeks (Suppl Table 4). […] Vehicle alone (0.9% NaCl) was also administered (IV). After 24 h the animals were sacrificed and the bacterial load in the bladder, kidney, and ureter was quantified by determining the number of colony-forming units (CFU) per mL of tissue extract (Fig. 7E–G).
Determination of MIC values was performed using the broth microdilution method according to the EUCAST guideline, which was performed in 96-well polystyrene flat-bottom microtiter plates (BD Biosciences). Briefly, a single colony was inoculated into 5 mL Difco™ Mueller–Hinton Broth (BD Biosciences Ref 275730) and grown to the end-exponential growth phase in a shaking incubator at 37 °C. Cultures were subsequently diluted to a MacFarland (0.5 optical density) to reach 10^6 CFU/mL in fresh MHB medium. 50 µl of different concentrations of peptides ranging from 128 to 2 µg/mL were serially diluted to the sterile 96-well plate in MHB. 50 µL of the diluted bacteria in MHB were next pipetted into 96-well plates to reach the final volume of 100 µL. The bacteria grown with the maximum concentration of carrier and medium were considered positive and negative controls, respectively. The plates were statically incubated overnight at 37 °C to allow bacterial growth. OD was measured at 590 nm using a multipurpose ultraviolet–visible plate reader, and the absorbance of the bacterial growth was measured using an absorbance reader.

TEM-1 [2] = conditions: ampicillin as substrate; cited from earlier work
E. coli TEM-30 = type: cell-based, Escherichia coli
Protocol: as §2, §3, §4, §5

NDM-5 = conditions: ampicillin as substrate; cited from earlier work
E. coli TEM104 = tested on: E. coli TEM104
Protocol: To quantify the synergy between these four peptides and penicillin G, we performed a so-called checkerboard assay, which allows us to compare the activity of two test compounds co-incubated (here peptide and a beta-lactam antibiotic), to their individual activities in isolation. […] We evaluated the synergy of the peptides with penicillin G in clinical E. coli isolates carrying the TEM (Fig. 3D) or SHV enzymes (Fig. 3E). […] The list of strains included some that harbored only TEM or SHV, but others contained additional Ambler Class A (CTX-M or OXA) or Class B (VIM and NDM) beta-lactamases.
(§6) For the analysis of synergy between the peptides and other antibiotics, a checkerboard assay was performed. Based on the MICs of the selected peptides, a checkerboard assay was designed to define their FICIs (Fractional Inhibitory Concentration Index) in combinations against different clinical isolates[53],[54]. Briefly, a total volume of 100 μL of Mueller–Hinton broth was distributed into each well of the 96-well plates. The first compound (peptide) of the combination was serially diluted vertically (128, 64, 32, 16, 8, 4, 2, 0 μg/mL) while the other drug (Beta-lactam or Kanamycin) was diluted horizontally in a 96-well plate (from 3200 to 3 μg/ mL). The total volume of each microtiter well was inoculated with 100 μL of MHB containing 1 × 10^6 CFU/mL bacteria. The plates were incubated at 37 °C for 24 h under aerobic conditions without shaking. Calculation of the FICI is used to analyze the results of the checkerboard assay by estimating the degree of synergistic effect. FICI is calculated as the sum of the individual fractional inhibitory concentrations (FICs) for each drug (where MIC A and MIC B denote the MIC of each drug alone, and MIC AA+B and MIC BA+B denote the concentrations of A and B in the drug combination). FICI = (MIC AA+B/MIC A) + (MIC BA+B/MIC B). With FICI ≤ 0.5, the combination of antibiotics is considered as a synergistic effect, 0.5 < FICI ≤ 1 indicates additivity, FICI > 1 indicates indifference.

E. coli NDM-5b = conditions: checkerboard, strain containing NDM5b
From the text: (§7) As we wondered about the generality of our peptide design approach, we set out to design a peptide to inactivate a structurally unrelated beta-lactamase. To this end, we turned to the Ambler class B beta-lactamase NDM-1 that confers resistance to many beta-lactam antibiotics, including carbapenems, and strains carrying this enzyme were soon dubbed ‘superbugs’ that are only partially sensitive to colistin and tigecycline. This enzyme was first isolated from a patient in 2008[41]. By 2010 it could be detected in clinical isolates throughout the UK and India[42], and by 2015, in over 70 countries worldwide.
as §6

E. coli NDM-5a = conditions: for FICi values: E. coli NDM-5a
From the text: as §7, §6

TEM-1 [3] = target: TEM-1 (Escherichia coli, UniProt P62593); type: biochemical, E. coli; design: His-tag (N); TEV cleavage site (N); made in house; host or cells: E. coli BL21 (DE3); conditions: static light scattering during temperature ramp, inhibitor titration
Chain of TEM-1 (Escherichia coli, UniProt P62593) (P62593 24-286 limits assumed): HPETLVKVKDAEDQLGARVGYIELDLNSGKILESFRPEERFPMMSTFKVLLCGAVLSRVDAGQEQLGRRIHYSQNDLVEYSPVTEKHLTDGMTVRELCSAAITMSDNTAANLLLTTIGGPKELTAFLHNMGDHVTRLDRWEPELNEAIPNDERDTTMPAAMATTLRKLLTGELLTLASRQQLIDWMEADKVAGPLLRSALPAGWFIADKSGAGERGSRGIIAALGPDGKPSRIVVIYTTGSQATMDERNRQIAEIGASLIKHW
From the text: Then, we performed a thermal denaturation whilst simultaneously monitoring the intrinsic fluorescence as a measure of the folding status of the molecule (Fig. 1D and Supplementary Fig. 2D) and the static light scattering as a measure of aggregation (Fig. 1E and Supplementary Fig. 2E).
D Heat denaturation of TEM-1 monitored by intrinsic fluorescence plotted as the BaryCentric Mean (BCM) of the fluorescence emission spectrum in the presence (red) and absence (blue) of tazobactam. […] E Temperature-dependent evolution of the Right-Angle Light Scattering (RALS) intensity measured simultaneously with the data in D to monitor protein aggregation. […] F Same data as in E, but showing a dose-titration of the beta-lactamase inhibitor tazobactam.

Which Kcat (VIM-1) does the source give for `CC1(C)S[C@@H]2[C@H](NC(=O)[C@H](N)c3ccccc3)C(=O)N2[C@H]1C(=O)O` [Ampicillin] here?
The Kcat was 37 s⁻¹.

And the Km (VIM-1)?
The Km was 917 µM.

And the Kcat (OXA-48)?
The Kcat was 955 s⁻¹.

And the Km (OXA-48)?
Its Km is 395 µM.

What about the Interoretation (E. coli TEM-206) of the same compound?
Its Interoretation is “R”.

And the Interoretation (E. coli NDM5b; E. coli NDM5b)?
The Interoretation was “R”.

What about the Interpretation (E. coli NDM5b; VITEK 2 AST card) of the same compound?
The Interpretation was “R”.

And the Interoretation (E. coli NDM5a; E. coli NDM5a)?
The Interoretation was “R”.

What about the Interpretation (E. coli NDM5a; VITEK 2 AST card) of the same compound?
The Interpretation was “R”.

What about the Interoretation (E. coli TEM-104; E. coli TEM-104) of the same compound?
Its Interoretation is “R”.

And the Interpretation (E. coli TEM-104; VITEK 2 AST card)?
The Interpretation was “R”.

What about the Interoretation (E. coli TEM-148; E. coli TEM-148) of the same compound?
Its Interoretation is “R”.

What about the Interpretation (E. coli TEM-148; VITEK 2 AST card) of the same compound?
Its Interpretation is “R”.

What about the Interoretation (E. coli SHV1 (APHA); E. coli SHV154) of the same compound?
The Interoretation was “R”.

And the Interpretation (E. coli SHV1 (APHA); VITEK 2 AST card)?
The Interpretation was “R”.

What about the Interoretation (E. coli TEM-16; E. coli TEM-16) of the same compound?
The Interoretation was “R”.

What about the Interpretation (E. coli TEM-16; VITEK 2 AST card) of the same compound?
The Interpretation was “R”.

What about the MIC [1] of the same compound?
Its MIC is 1200 µg/mL.

And the Kcat (TEM-1 [2])?
The Kcat was 1428 s⁻¹.

And the Km (TEM-1 [2])?
Its Km is 50 µM.

And the Interoretation (E. coli TEM-30; E. coli TEM-30)?
The Interoretation was “R”.

And the Interpretation (E. coli TEM-30; VITEK 2 AST card)?
The Interpretation was “R”.

And the Kcat (NDM-5)?
The Kcat was 1912 s⁻¹.

And the Km (NDM-5)?
The Km was 118 µM.

With Ac-RTAQILNWRRPRTAQILNWRR-NH2 [NDM1-1] as the compound, how does the FICi values (E. coli TEM104; TEM104, Replicate1) read?
Its FICi values is 0.5.

What about the FICi values (E. coli TEM104; TEM104, Replicate2) of the same compound?
Its FICi values is 0.78.

What about the FICi values (E. coli TEM104; TEM104, Replicate3) of the same compound?
The FICi values was 0.72.

And the FICi values (E. coli TEM104; TEM104, Replicate5)?
Its FICi values is 0.75.

What about the “synergy with penicillin (in words)” value (E. coli NDM-5b) of the same compound?
Its value is “show synergy”.

And the FICi values (E. coli NDM-5a; Replicate1)?
Its FICi values is 0.37.

And the FICi values (E. coli NDM-5a; Replicate2)?
The FICi values was 0.38.

What about the FICi values (E. coli NDM-5a; Replicate3) of the same compound?
Its FICi values is 0.21.

What about the FICi values (E. coli NDM-5a; Replicate4) of the same compound?
Its FICi values is 0.195.

What about the FICi values (E. coli NDM-5a; Replicate5) of the same compound?
The FICi values was 0.25.

And the “synergy with penicillin (in words)” value (E. coli NDM-5a; checkerboard, strain containing NDM5a)?
Its value is “show synergy”.

With `O=C(O)[C@H]1/C(=C/CO)O[C@@H]2CC(=O)N21` [clavulanate] as the compound, how does the “effect on aggregation of TEM-1, dose-response (in words)” value (TEM-1 [3]) read?
The value was “reduce the aggregation of the enzyme in a dose-responsive manner”.

With `O=C(O)C[C@@H]1CC[C@H](NC(=O)Cc2cccs2)B(O)O1` [vaborbactam] as the compound, how does the “effect on aggregation of TEM-1, dose-response (in words)” value (TEM-1 [3]) read?
Its value is “reduce the aggregation of the enzyme in a dose-responsive manner”.
